Measured values taken from ChEMBL document CHEMBL3991601, “The target landscape of clinical kinase drugs” (Science, 2017).
Structures can show the parent of a compound that is named as a salt. Calls of active or inactive are those of the source.

Columns and labels:
[1] = target: T1, Serine/threonine-protein kinase Nek1 (Homo sapiens, UniProt Q96PY6)
T1 sequence (Q96PY6 whole entry): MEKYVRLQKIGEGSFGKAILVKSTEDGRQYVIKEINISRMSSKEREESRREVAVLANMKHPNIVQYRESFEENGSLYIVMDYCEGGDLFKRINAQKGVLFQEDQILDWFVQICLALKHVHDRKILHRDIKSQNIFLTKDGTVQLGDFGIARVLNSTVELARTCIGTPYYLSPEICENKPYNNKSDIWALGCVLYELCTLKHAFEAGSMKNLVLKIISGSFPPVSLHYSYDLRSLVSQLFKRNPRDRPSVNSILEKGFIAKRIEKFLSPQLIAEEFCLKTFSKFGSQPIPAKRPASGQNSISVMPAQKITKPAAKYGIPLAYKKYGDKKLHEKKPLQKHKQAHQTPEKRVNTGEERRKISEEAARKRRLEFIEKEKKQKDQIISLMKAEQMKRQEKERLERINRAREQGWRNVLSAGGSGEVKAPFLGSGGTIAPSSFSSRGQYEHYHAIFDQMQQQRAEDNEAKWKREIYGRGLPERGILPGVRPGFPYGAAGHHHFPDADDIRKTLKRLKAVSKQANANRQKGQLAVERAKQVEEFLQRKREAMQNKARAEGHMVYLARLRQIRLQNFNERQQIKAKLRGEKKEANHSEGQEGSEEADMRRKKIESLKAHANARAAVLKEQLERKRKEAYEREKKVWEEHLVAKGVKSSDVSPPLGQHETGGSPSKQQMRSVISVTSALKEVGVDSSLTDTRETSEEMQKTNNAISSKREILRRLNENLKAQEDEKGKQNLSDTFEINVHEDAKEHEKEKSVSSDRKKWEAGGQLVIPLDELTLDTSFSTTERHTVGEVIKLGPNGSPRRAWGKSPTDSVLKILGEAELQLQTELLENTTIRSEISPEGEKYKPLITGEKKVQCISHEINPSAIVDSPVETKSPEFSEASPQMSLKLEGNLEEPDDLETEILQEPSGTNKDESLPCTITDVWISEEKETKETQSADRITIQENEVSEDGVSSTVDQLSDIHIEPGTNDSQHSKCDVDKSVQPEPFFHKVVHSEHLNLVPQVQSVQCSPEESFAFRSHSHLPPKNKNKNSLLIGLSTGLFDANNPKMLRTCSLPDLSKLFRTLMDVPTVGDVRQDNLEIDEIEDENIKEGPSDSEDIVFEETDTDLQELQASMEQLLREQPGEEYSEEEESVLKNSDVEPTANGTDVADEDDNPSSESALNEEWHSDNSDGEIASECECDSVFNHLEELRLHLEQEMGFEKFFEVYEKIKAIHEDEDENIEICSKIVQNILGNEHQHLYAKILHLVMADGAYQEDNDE

[2] = target: Dual specificity mitogen-activated protein kinase kinase 1 (Homo sapiens, UniProt Q02750)
Dual specificity mitogen-activated protein kinase kinase 1, sequence (Q02750 whole entry): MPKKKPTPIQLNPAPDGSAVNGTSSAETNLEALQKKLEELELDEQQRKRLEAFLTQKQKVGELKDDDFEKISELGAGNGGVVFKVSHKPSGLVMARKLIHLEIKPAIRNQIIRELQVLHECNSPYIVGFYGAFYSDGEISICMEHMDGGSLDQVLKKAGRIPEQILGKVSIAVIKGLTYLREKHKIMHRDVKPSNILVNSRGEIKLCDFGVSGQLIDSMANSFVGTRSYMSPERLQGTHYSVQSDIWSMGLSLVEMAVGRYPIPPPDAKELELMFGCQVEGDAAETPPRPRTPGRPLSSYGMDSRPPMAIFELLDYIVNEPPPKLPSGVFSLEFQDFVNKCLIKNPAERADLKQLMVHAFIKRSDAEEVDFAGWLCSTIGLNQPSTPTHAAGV

[3] = target: Ephrin type-A receptor 5 (Homo sapiens, UniProt P54756)
Ephrin type-A receptor 5, sequence (P54756 whole entry): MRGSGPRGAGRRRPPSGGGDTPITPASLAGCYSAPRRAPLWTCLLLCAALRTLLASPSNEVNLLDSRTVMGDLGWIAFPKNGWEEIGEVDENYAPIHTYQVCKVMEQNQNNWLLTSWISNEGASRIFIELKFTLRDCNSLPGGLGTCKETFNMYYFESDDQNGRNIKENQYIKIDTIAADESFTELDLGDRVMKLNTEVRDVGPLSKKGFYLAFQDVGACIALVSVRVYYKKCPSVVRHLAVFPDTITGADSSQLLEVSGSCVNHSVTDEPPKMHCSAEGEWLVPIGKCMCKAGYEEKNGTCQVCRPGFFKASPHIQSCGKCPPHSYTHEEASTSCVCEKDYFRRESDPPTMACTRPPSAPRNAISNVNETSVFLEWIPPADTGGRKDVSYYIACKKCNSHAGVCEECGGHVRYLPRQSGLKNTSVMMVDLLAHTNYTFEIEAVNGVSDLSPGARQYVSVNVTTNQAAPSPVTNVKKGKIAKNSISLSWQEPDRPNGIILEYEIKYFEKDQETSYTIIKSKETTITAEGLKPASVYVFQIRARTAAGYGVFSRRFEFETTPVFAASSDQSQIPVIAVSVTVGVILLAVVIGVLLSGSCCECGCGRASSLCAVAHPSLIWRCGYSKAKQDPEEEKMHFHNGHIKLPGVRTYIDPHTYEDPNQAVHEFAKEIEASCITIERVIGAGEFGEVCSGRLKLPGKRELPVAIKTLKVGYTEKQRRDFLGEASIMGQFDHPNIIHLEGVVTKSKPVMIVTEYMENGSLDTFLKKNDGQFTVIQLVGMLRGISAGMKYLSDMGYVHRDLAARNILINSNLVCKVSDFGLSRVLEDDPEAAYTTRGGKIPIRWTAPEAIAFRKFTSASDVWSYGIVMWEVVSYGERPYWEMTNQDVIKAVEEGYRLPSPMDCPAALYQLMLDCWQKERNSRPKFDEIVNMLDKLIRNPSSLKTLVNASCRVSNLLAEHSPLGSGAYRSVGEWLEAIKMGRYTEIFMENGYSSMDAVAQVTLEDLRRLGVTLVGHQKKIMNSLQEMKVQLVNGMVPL

[4] = target: Inosine-5'-monophosphate dehydrogenase 2 (Homo sapiens, UniProt P12268)
[5] = target: Chromodomain-helicase-DNA-binding protein 4 (Homo sapiens, UniProt Q14839)
Chromodomain-helicase-DNA-binding protein 4, sequence (Q14839 whole entry): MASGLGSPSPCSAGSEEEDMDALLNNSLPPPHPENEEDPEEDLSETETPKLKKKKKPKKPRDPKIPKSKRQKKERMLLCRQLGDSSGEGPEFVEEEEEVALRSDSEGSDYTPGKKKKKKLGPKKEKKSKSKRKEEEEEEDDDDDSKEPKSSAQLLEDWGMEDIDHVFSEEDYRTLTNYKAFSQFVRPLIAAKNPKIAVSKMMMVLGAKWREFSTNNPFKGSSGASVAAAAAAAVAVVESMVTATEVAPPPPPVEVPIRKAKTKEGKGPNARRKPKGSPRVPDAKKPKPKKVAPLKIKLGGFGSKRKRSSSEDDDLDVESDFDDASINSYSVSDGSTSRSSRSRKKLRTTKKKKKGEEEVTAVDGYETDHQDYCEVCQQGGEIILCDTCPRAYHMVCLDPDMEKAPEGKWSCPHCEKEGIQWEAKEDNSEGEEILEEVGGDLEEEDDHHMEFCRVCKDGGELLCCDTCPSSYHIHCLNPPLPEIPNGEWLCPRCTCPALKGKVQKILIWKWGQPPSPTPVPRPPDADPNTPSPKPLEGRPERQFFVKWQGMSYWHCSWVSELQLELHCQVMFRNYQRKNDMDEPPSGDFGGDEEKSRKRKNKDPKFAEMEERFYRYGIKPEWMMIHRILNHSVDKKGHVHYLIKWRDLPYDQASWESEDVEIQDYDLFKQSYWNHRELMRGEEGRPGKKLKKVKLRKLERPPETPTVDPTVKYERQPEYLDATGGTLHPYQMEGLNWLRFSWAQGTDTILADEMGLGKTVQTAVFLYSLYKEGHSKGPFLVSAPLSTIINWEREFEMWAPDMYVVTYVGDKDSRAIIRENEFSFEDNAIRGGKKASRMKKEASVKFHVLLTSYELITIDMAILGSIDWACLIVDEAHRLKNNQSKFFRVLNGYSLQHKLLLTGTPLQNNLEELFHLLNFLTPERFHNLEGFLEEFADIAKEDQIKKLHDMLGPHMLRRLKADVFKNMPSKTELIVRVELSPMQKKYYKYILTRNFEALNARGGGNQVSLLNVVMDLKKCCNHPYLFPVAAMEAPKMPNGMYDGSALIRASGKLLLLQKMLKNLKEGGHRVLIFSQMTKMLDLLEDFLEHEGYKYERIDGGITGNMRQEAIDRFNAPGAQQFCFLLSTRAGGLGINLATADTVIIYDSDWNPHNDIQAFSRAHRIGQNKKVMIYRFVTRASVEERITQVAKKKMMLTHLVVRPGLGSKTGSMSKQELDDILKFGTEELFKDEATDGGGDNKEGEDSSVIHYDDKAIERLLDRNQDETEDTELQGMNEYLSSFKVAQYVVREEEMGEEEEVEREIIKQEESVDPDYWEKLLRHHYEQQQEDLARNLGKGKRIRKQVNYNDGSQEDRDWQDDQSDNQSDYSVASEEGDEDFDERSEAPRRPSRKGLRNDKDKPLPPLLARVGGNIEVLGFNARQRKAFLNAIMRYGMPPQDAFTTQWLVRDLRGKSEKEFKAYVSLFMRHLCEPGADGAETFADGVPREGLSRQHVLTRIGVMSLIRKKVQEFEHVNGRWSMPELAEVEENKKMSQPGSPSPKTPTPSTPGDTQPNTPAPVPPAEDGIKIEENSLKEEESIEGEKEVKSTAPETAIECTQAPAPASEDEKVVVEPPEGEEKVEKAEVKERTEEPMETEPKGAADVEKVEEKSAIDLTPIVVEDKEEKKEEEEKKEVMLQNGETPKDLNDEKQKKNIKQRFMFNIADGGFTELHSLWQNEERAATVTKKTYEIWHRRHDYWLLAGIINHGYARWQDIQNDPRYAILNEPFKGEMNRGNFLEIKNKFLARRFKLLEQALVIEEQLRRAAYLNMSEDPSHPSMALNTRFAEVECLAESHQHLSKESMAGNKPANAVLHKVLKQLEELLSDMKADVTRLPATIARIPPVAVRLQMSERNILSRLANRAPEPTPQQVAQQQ

[6] = target: Receptor-interacting serine/threonine-protein kinase 3 (Homo sapiens, UniProt Q9Y572)
Receptor-interacting serine/threonine-protein kinase 3, sequence (Q9Y572 whole entry): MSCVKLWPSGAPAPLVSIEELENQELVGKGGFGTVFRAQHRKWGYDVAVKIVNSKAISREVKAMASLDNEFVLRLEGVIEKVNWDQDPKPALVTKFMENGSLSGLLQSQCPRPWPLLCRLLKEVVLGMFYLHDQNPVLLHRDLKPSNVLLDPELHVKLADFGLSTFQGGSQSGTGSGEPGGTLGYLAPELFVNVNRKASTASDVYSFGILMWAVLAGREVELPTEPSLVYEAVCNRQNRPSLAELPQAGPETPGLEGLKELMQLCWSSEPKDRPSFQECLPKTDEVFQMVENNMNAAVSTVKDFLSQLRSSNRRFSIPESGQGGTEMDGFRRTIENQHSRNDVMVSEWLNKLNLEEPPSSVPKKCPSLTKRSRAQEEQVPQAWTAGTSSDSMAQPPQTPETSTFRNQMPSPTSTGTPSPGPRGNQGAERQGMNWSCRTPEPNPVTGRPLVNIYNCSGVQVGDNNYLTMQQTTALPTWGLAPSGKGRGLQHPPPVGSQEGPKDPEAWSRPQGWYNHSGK

[7] = target: T2, Serine/threonine-protein kinase Nek2 (Homo sapiens, UniProt P51955)
T2 sequence (P51955 whole entry): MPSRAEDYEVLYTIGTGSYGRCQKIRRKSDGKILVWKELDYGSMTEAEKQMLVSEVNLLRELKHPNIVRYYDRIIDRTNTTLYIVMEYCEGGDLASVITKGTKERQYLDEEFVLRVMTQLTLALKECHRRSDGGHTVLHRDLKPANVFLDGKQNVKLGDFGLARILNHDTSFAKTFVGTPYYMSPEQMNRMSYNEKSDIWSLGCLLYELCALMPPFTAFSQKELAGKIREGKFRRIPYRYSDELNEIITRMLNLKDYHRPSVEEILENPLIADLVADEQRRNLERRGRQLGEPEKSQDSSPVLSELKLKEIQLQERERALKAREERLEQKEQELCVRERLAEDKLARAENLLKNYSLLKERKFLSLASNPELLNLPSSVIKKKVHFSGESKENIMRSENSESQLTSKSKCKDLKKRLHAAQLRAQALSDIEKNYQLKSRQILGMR

[8] = target: Adenylate kinase 2, mitochondrial (Homo sapiens, UniProt P54819)
[9] = target: Ephrin type-A receptor 7 (Homo sapiens, UniProt Q15375)
[10] = target: Ribosomal protein S6 kinase beta-1 (Homo sapiens, UniProt P23443)
Ribosomal protein S6 kinase beta-1, sequence (P23443 whole entry): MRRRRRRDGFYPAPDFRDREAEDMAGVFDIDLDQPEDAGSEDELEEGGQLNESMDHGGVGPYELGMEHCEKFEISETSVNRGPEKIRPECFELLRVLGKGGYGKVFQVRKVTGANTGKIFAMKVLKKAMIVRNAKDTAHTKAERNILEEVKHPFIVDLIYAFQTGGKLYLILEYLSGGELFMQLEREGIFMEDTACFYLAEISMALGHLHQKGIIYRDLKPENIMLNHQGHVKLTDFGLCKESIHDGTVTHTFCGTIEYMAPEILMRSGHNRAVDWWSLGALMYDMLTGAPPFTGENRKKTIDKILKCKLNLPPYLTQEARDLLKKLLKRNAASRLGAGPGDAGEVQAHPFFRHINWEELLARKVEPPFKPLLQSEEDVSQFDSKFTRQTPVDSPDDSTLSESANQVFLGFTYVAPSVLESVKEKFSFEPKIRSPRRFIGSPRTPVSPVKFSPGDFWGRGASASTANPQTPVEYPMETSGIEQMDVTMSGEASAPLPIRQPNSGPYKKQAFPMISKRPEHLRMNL

[11] = target: Serine/threonine-protein kinase PAK 2 (Homo sapiens, UniProt Q13177)
Serine/threonine-protein kinase PAK 2, sequence (Q13177 whole entry): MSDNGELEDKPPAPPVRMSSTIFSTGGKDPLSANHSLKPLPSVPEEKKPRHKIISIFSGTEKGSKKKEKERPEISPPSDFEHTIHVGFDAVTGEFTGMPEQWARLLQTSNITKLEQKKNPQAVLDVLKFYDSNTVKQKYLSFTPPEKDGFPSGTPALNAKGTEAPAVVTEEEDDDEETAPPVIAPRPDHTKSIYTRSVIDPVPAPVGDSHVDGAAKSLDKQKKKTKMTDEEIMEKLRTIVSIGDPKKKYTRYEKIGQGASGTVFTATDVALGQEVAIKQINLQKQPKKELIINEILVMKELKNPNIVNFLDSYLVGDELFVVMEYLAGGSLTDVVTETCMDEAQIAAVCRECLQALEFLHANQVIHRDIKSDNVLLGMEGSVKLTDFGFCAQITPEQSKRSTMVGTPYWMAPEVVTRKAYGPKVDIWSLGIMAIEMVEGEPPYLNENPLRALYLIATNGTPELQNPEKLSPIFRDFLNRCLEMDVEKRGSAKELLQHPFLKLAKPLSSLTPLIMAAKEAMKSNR

[12] = target: TRAF2 and NCK-interacting protein kinase (Homo sapiens, UniProt Q9UKE5)
[13] = target: Adenosine kinase (Homo sapiens, UniProt P55263)
[14] = target: T3, Septin-9 (Homo sapiens, UniProt Q9UHD8)
T3 sequence (Q9UHD8 whole entry): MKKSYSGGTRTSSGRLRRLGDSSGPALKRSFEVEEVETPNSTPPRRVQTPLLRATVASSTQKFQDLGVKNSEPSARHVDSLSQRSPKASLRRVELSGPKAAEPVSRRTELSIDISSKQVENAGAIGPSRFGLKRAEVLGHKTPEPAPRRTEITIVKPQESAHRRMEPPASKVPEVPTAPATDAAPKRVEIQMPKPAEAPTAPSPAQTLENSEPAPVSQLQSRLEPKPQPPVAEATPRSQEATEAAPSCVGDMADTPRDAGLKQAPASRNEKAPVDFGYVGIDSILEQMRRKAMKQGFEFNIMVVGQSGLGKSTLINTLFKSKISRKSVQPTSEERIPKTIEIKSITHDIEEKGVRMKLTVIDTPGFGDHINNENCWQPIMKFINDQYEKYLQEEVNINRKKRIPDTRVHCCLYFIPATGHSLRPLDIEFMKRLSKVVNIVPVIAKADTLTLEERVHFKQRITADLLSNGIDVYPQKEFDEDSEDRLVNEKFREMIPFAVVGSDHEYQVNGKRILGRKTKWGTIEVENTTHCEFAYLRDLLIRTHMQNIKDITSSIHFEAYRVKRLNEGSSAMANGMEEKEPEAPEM
Further: in the data inactive means no Kd found up to 30 µM.

## C[C@@H](Oc1cc(C(=O)Nc2ccc(C(=O)N3CCN(C)CC3)cc2)nnc1N)c1c(Cl)ccc(F)c1Cl
[1]
  Kd: > 30 µM (inactive)
[2]
  Kd: > 30 µM (inactive)
[3]
  Kd: > 30 µM (inactive)
[4]
  Kd: > 30 µM (inactive)
[5]
  Kd: > 30 µM (inactive)
[6]
  Kd: > 30 µM (inactive)
[7]
  Kd: > 30 µM (inactive)
[8]
  Kd: > 30 µM (inactive)
[9]
  Kd: > 30 µM (inactive)
[10]
  Kd: > 30 µM (inactive)
[11]
  Kd: > 30 µM (inactive)
[12]
  Kd: > 30 µM (inactive)

## CC(=O)c1cnc2ccc(-c3cc(Cl)c(O)c(Cl)c3)nc2c1N[C@H]1CC[C@H](CN(C)C)CC1
[1]
  Kd: > 30 µM (inactive)
[2]
  Kd: 0.968 µM (active)
[3]
  Kd: 0.075 µM (active)
[13]
  Kd: > 30 µM (inactive)
[5]
  Kd: > 30 µM (inactive)
[6]
  Kd: 0.324 µM
[7]
  Kd: > 30 µM (inactive)
[8]
  Kd: > 30 µM (inactive)
[9]
  Kd: 0.016 µM
[10]
  Kd: > 30 µM (inactive)
[14]
  Kd: > 30 µM (inactive)
[11]
  Kd: > 30 µM (inactive)

## Nc1ncnc2c1c(-c1cccc(OCc3ccccc3)c1)cn2[C@H]1C[C@@H](CN2CCC2)C1 [AEW-541]
[1]
  Kd: > 30 µM (inactive)
[2]
  Kd: 3.33 µM (active)
[3]
  Kd: > 30 µM (inactive)
[13]
  Kd: > 30 µM (inactive)
[6]
  Kd: 6.45 µM (active)
[7]
  Kd: > 30 µM (inactive)
[8]
  Kd: > 30 µM (inactive)
[9]
  Kd: > 30 µM (inactive)
[10]
  Kd: > 30 µM (inactive)
[14]
  Kd: > 30 µM (inactive)
[11]
  Kd: > 30 µM (inactive)
[12]
  Kd: > 30 µM (inactive)

## Cc1cc(Nc2ncc(Cl)c(Nc3ccccc3S(=O)(=O)C(C)C)n2)c(OC(C)C)cc1C1CCNCC1 [CERITINIB]
[1]
  Kd: > 30 µM (inactive)
[2]
  Kd: > 30 µM (inactive)
[3]
  Kd: > 30 µM (inactive)
[13]
  Kd: > 30 µM (inactive)
[5]
  Kd: > 30 µM (inactive)
[6]
  Kd: > 30 µM (inactive)
[7]
  Kd: > 30 µM (inactive)
[8]
  Kd: > 30 µM (inactive)
[9]
  Kd: > 30 µM (inactive)
[10]
  Kd: > 30 µM (inactive)
[14]
  Kd: > 30 µM (inactive)
[11]
  Kd: > 30 µM (inactive)
[12]
  Kd: > 30 µM (inactive)

## CCS(=O)(=O)N1CCN(c2ccc(Nc3ncc(C(N)=O)c(NC4CC4)n3)cc2)CC1 [Cerdulatinib Hydrochloride]
[1]
  Kd: > 30 µM (inactive)
[2]
  Kd: > 30 µM (inactive)
[3]
  Kd: > 30 µM (inactive)
[4]
  Kd: > 30 µM (inactive)
[5]
  Kd: > 30 µM (inactive)
[6]
  Kd: > 30 µM (inactive)
[7]
  Kd: > 30 µM (inactive)
[8]
  Kd: > 30 µM (inactive)
[9]
  Kd: > 30 µM (inactive)
[10]
  Kd: > 30 µM (inactive)
[14]
  Kd: > 30 µM (inactive)
[11]
  Kd: > 30 µM (inactive)
[12]
  Kd: > 30 µM (inactive)

## COc1ccc(S(=O)(=O)N(C(C)=O)c2ccccc2/C=C/c2cc[n+]([O-])cc2)cc1 [HMN-214]
[1]
  Kd: > 30 µM (inactive)
[2]
  Kd: > 30 µM (inactive)
[3]
  Kd: > 30 µM (inactive)
[13]
  Kd: > 30 µM (inactive)
[5]
  Kd: > 30 µM (inactive)
[6]
  Kd: > 30 µM (inactive)
[7]
  Kd: > 30 µM (inactive)
[8]
  Kd: > 30 µM (inactive)
[9]
  Kd: > 30 µM (inactive)
[10]
  Kd: > 30 µM (inactive)
[14]
  Kd: > 30 µM (inactive)
[11]
  Kd: > 30 µM (inactive)
[12]
  Kd: > 30 µM (inactive)

## FC(F)(F)c1ccc(/C=C/c2nc(COc3ccc(CCCCn4ccnn4)cc3)co2)cc1 [MUBRITINIB]
[1]
  Kd: > 30 µM (inactive)
[2]
  Kd: > 30 µM (inactive)
[3]
  Kd: > 30 µM (inactive)
[13]
  Kd: > 30 µM (inactive)
[5]
  Kd: > 30 µM (inactive)
[6]
  Kd: > 30 µM (inactive)
[7]
  Kd: > 30 µM (inactive)
[8]
  Kd: > 30 µM (inactive)
[9]
  Kd: > 30 µM (inactive)
[10]
  Kd: > 30 µM (inactive)
[14]
  Kd: > 30 µM (inactive)
[11]
  Kd: > 30 µM (inactive)
[12]
  Kd: > 30 µM (inactive)

## CCS(=O)(=O)c1cccc(-c2cc(C(=O)NC3CCN(C)CC3)c(C)c3[nH]c4ncc(C)cc4c23)c1 [TAK-901]
[1]
  Kd: > 30 µM (inactive)
[2]
  Kd: > 30 µM (inactive)
[3]
  Kd: 0.508 µM (active)
[13]
  Kd: > 30 µM (inactive)
[5]
  Kd: > 30 µM (inactive)
[6]
  Kd: > 30 µM (inactive)
[7]
  Kd: > 30 µM (inactive)
[8]
  Kd: > 30 µM (inactive)
[9]
  Kd: 0.615 µM (active)
[10]
  Kd: > 30 µM (inactive)
[14]
  Kd: > 30 µM (inactive)
[11]
  Kd: > 30 µM (inactive)
[12]
  Kd: > 30 µM (inactive)
